Columns and labels:
[1] = system: CHSA8926 (Chondrosarcoma); assay: Bliss excess, mean over the matrix (fraction); higher = more synergy
Method in brief: (§1)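 Cell lines in DMEM/F12 or RPMI with 10% FBS were plated in 1536-well plates, held 24 hours at 37°C, 5% CO2, then given two-drug dose matrices for 72 hours (DMSO typically 0.2%). Viability was read by CellTiter-Glo 2.0 luminescence and scaled as inhibition from 0 (vehicle wells) to 1 (blank wells). Combination Emax is the second-highest inhibition in the matrix; Bliss excess is observed combination effect minus expected EA + EB − EA·EB, EA and EB being single-agent effects.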

[2] = system: COR-L279 (Small Cell Lung Carcinoma); assay: as above
Method in brief: as §1

[3] = system: CW-2 (Colorectal Carcinoma); assay: as above
Method in brief: as §1

[4] = system: ESO51 (Esophageal Adenocarcinoma); assay: as above
Method in brief: as §1

[5] = system: G-361 (Melanoma); assay: as above
Method in brief: as §1

[6] = system: H9 (T-Cell Non-Hodgkin's Lymphoma); assay: as above
Method in brief: as §1

[7] = system: IM-95 (Gastric Carcinoma); assay: as above
Method in brief: as §1

[8] = system: JHH-4 (Hepatocellular Carcinoma); assay: as above
Method in brief: as §1

[9] = system: KU812 (Chronic Myelogenous Leukemia); assay: as above
Method in brief: as §1

[10] = system: KYSE-270 (Esophageal Squamous Cell Carcinoma); assay: as above
Method in brief: as §1

[11] = system: MN-60 (B-Lymphoblastic Leukemia); assay: as above
Method in brief: as §1

[12] = system: NCI-H2731 (Mesothelioma); assay: as above
Method in brief: as §1

[13] = system: NCI-H526 (Small Cell Lung Carcinoma); assay: as above
Method in brief: as §1

[14] = system: SK-GT-2 (Gastric Carcinoma); assay: as above
Method in brief: as §1

[15] = system: SK-GT-4 (Esophageal Adenocarcinoma); assay: as above
Method in brief: as §1

[16] = system: SU-DHL-5 (B-Cell Non-Hodgkin's Lymphoma); assay: as above
Method in brief: as §1

[17] = system: SUP-B15 (B-Lymphoblastic Leukemia); assay: as above
Method in brief: as §1

[18] = system: T-T (Esophageal Squamous Cell Carcinoma); assay: as above
Method in brief: as §1

[19] = system: VMRC-RCZ (Kidney Carcinoma); assay: as above
Method in brief: as §1

[20] = system: SK-GT-2 (Gastric Carcinoma); assay: combination Emax (second highest fraction inhibited in the dose matrix, 72 h); higher = more inhibition; extreme values may be limits of the assay
Method in brief: as §1
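Throughout, for Bliss excess, mean over the matrix: after 72 h of two-drug dosing.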

| SMILES | Bliss excess [1] | Bliss excess [2] | Bliss excess [3] | Bliss excess [4] | Bliss excess [5] | Bliss excess [6] | Bliss excess [7] | Bliss excess [8] | Bliss excess [9] | Bliss excess [10] | Bliss excess [11] | Bliss excess [12] | Bliss excess [13] | Bliss excess [14] | Bliss excess [15] | Bliss excess [16] | Bliss excess [17] | Bliss excess [18] | Bliss excess [19] | combination Emax [20] |
| --- | --- | --- | --- | --- | --- | --- | --- | --- | --- | --- | --- | --- | --- | --- | --- | --- | --- | --- | --- | --- |
| Cc1c2c(nn1C)CSCc1cc(n(C)n1)CSc1cc(c3ccccc3c1)OCCCc1c(C(=O)O)n(C)c3c-2c(Cl)ccc13 [AZD5991] + Cn1cnc2c(F)c(Nc3ccc(Br)cc3Cl)c(C(=O)NOCCO)cc21 [Selumetinib] (first compound max 1 µM, 7x7, partner max 3 µM) | -0.0772 | -0.0172 | 0.0226 | 0.0896 | 0.0083 | 0.0145 | 0.0906 | 0.0244 | 0.0224 | 0.0409 | -0.0125 | -0.0354 | 0.0123 | 0.016 | -0.0385 | 0.0221 | 0.0806 | 0.0289 | -0.0777 | 0.154 |
| Cc1cc2ncnn2cc1Nc1ncc2c(n1)n(C1CCOCC1)c(=O)n2C [AZD7648] + CN(C)CCCOc1ccc(-c2ccc3ncc4c(c3c2)n(C2CCOCC2)c(=O)n4C)cn1 [AZD0156] (first compound max 10 µM, 7x7, partner max 1 µM) | 0.0091 | -0.0044 | -0.0088 | -0.0151 | 0.0032 | 0.0458 | 0.0121 | 0.0025 | 0.0197 | -0.0004 | -0.0405 | -0.0326 | 0.0429 | -0.0011 | -0.0406 | 0.0272 | -0.0084 | 0.0269 | -0.0314 | 0.159 |
| C=CCn1c(=O)c2cnc(Nc3ccc(N4CCN(C)CC4)cc3)nc2n1-c1cccc(C(C)(C)O)n1 [AZD1775] + O=C(c1cc(Cc2n[nH]c(=O)c3ccccc23)ccc1F)N1CCN(C(=O)C2CC2)CC1 [Olaparib] (first compound max 1 µM, partner max 10 µM) | -0.0167 | -0.0572 | 0.0127 | -0.0917 | -0.0217 | -0.0075 | -0.0047 | -0.0254 | -0.039 | -0.0166 | -0.0143 | -0.0438 | -0.0152 | -0.0139 | -0.0709 | 0.0215 | -0.0148 | -0.002 | -0.0443 | 0.82 |

From the supplement of paper PMC11061612
